These results are taken from ChEMBL document CHEMBL1153865, “The metabolism of CYP2C9 and CYP2C19 for gliclazide by homology modeling and docking study” (Eur J Med Chem, 2009).

By Vmax is commonly meant the rate approached at saturating substrate. One may read the Ki as the dissociation constant of the complex between target and ligand, obtained from inhibition or displacement.

What all share (assay type): ADME
Series [1] deals with T1, Cytochrome P450 2C19 (Homo sapiens, UniProt P33261). Put plainly: Activity at recombinant CYP2C19 by Michaelis-Menten method. As to conditions: recombinant enzyme; call rule not given here.
The target in series [2] is T2, Cytochrome P450 2C9 (Homo sapiens, UniProt P11712). The experiment in a line: Activity at recombinant CYP2C9 by Michaelis-Menten method. As to conditions: recombinant enzyme.
Series [3] addresses T1, Cytochrome P450 2C19. Put plainly: Inhibition of CYP2C19.
The target in series [4] is T2, Cytochrome P450 2C9. The experiment in a line: Inhibition of CYP2C9 assessed as decrease in catalytic reaction velocity at 200 uM by substrate-inhibition assay.
The target of series [5] is T1, Cytochrome P450 2C19. The experiment in a line: Inhibition of CYP2C19 assessed as decrease in catalytic reaction velocity at 100 uM by substrate-inhibition assay.

SMILES strings stand for the structures.

T1 sequence (P33261 whole entry): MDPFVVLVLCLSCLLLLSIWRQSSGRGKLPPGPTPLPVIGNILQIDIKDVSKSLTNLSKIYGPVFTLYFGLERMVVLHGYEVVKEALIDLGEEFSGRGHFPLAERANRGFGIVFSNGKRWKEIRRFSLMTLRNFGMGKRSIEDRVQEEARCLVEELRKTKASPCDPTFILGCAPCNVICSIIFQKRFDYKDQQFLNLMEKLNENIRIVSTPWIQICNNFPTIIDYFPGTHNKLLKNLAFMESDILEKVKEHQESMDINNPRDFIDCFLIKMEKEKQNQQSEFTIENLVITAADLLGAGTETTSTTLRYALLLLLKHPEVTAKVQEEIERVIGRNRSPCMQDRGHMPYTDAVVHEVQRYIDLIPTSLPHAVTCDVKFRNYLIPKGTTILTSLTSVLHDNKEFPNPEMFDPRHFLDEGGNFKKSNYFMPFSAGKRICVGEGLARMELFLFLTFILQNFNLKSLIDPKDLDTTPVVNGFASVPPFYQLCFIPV
T2 sequence (P11712 whole entry): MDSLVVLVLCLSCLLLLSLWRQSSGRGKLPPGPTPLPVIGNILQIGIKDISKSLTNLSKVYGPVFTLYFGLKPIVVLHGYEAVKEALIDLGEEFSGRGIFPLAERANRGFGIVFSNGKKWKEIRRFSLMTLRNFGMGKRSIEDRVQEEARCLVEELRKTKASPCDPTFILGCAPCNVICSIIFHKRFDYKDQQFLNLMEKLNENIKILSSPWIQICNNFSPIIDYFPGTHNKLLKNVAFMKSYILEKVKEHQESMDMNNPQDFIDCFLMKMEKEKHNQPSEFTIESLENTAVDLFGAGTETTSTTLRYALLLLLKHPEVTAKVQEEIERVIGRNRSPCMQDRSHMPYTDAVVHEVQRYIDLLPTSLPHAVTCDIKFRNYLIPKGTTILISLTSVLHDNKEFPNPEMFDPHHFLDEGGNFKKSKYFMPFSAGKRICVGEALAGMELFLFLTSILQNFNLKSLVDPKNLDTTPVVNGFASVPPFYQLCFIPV

For the molecule `Cc1ccc(S(=O)(=O)NC(=O)NN2C[C@@H]3CC[C@@H](O)[C@@H]3C2)cc1`, the Vmax worked out at 14.9 pmol/min on Cytochrome P450 2C19 [1] and 0.6 pmol/min on Cytochrome P450 2C9 [2].

`CCC1(c2ccccc2)C(=O)NC(=O)N(Cc2ccccc2)C1=O` (configuration not stated): the Ki on Cytochrome P450 2C19 [3] was 79 µM. As to `O=C(NN1C[C@H]2CCC[C@H]2C1)NS(=O)(=O)c1ccc(CO)cc1` [METHYLHYDROXYLGLICLAZIDE], the Vmax on Cytochrome P450 2C19 [1] was 12.1 pmol/min; at Cytochrome P450 2C9 [2], 0.6 pmol/min. For the molecule `Cc1ccc(S(=O)(=O)NC(=O)NN2CC3CCCC3C2)cc1` (configuration not stated) [GLICLAZIDE], the “inhibition (INH)” value at Cytochrome P450 2C9 [4] and at Cytochrome P450 2C19 [5] was “Not Active” in each case.
